{"source": "patent US20260354378A1", "about": "“OIL-IN-WATER EMULSION FORMULATION, A PROCESS FOR ITS PREPARATION AND ITS USE AS HERBICIDE” (priority 2022, published 2026)", "key": {"[1]": {"assay": "Solubility in the oil phase of the emulsion of US 2011/0092367 A1", "format": "physicochemical", "conditions": "Solvesso 200 ND, Wettol EM 1, Wettol EM 31 per Table 9", "procedure": "(§1) As a preliminary step, solubility tests were performed to determine the ability of Aminopyralid potassium salt used as herbicide B to dissolve in the organic solvent Solvesso 200ND and the oil phase of the emulsion disclosed in US 2011/0092367 A1, page 11, paragraphs [0141] and [0142].\nThe organic solvent (Solvesso 200 ND), calcium dodecylbenzene sulfonate (Wettol EM 1) and castor oil ethoxylate (Wettol EM 31) were mixed in the amounts given in Table 9. After mixing, it was not soluble in said mixture. After further adding dimethenamid-P in the amount given in Table 9, solubility of the Aminopyralid potassium salt could not be increased. In summary, Aminopyralid potassium salt (herbicide B) was not soluble in the oil phase of the emulsion as disclosed in US 2011/0092367 A1 (see page 11, paragraphs [0141] and [0142])."}, "[2]": {"assay": "Solubility in the organic solvent Solvesso 200ND", "format": "physicochemical", "conditions": "room temperature", "procedure": "as §1\nThe solubility was measured in a test tube at room temperature. 0.10 g of Aminopyralid potassium salt was placed in the test tube. First, 1 g of the organic solvent (Solvesso 200 ND) was added. The amount of the organic solvent (Solvesso 200 ND) was then increased in several steps to 10 g. […] The solubility of Aminopyralid Potassium salt in Solvesso 200ND was visually determined to be less than 1%."}}, "note": "Counter-ions that a name gives are not always drawn."}
{"smiles": "Nc1cc(Cl)nc(C(=O)O)c1Cl", "note": "[Aminopyralid potassium salt, 4-amino-3,6-dichloro-2-pyridinecarboxylic acid]", "values": [{"measurement": "Solubility in the oil phase of the emulsion of US 2011/0092367 A1", "setting": "[1]", "result": "not soluble"}, {"measurement": "Solubility in Solvesso 200 ND (visual observation)", "setting": "[2]; 0.10 g in 1 g to 10 g solvent, magnetic stirrer", "result": "poor solubility"}, {"measurement": "Solubility in Solvesso 200ND", "setting": "[2]; visually determined", "result": "less than 1%"}]}
